Test system: Plasmodium falciparum
Experiment: GSK_TCMDC: Inhibition of Plasmodium falciparum 3D7 in whole erythrocytes, using parasite LDH activity as an index of growth.
Type: functional, organism-based
Conditions: Plasmodium falciparum, 3D7

Row | SMILES | XC50 [µM]
1 | Cc1ccc2c(N/N=C/c3cccc([N+](=O)[O-])c3)cc(C)nc2c1 | 0.272
2 | CC(C)(C)c1ccc2[nH]c(-c3ccc(C(=O)NCc4cccc(C(F)(F)F)c4)cc3)nc2c1 | 0.733
3 | CS(=O)(=O)c1ccc(-c2cnc(N)c(-c3ccc(O)cc3)c2)cc1 | 1.36
4 | COc1ccc(-n2ccnc2SCC(=O)Nc2cc(C)ccc2C)c(OC)c1 | 0.205
5 | CC(C)c1sc(N2CCN(C)CC2)nc1C(=O)NCCc1ccc(Br)cc1 | 1.13
6 | COc1cccc(Nc2nc(Nc3cccc(C#N)c3)cc(-c3ccncc3)n2)c1 | 0.764
7 | COc1ccc(NC(=O)CCNc2cc(C)nc(Nc3ccccc3)n2)cc1 | 1.1
8 | FC(F)(F)c1ccc2[nH]c(-c3ccc(-c4ccc(CNCC5CCCO5)cc4)cc3)nc2c1 (stereo unspecified) | 0.407
9 | O=C(CNC(=O)c1ccc(O)cc1)Nc1ccc(-c2cccc(-c3nc4cc(C(F)(F)F)ccc4[nH]3)c2)cc1 | 0.859
10 | CCn1c(Sc2ccc(C#N)c([N+](=O)[O-])c2)nnc1-c1cccc(Cl)c1 | 0.446
11 | CCN(C(=O)c1ccc(NC(=O)c2cccs2)cc1)c1nc2c(C)cccc2s1 | 0.85
12 | Cc1cccc2nc(-c3cccc(-c4cccc(NC(=O)C5CC(=O)Nc6ccccc65)c4)c3)[nH]c12 (stereo unspecified) | 0.0646
13 | NCc1cccc(-c2cccc(CNC3CCN(Cc4ccccc4)CC3)c2)c1 | 0.719
14 | O=C(NC1CCN(CCc2c[nH]c3ccc(F)cc23)CC1)c1ncc(-c2ccccc2)[nH]1 | 0.868
15 | COc1cccc(C2(C)CCN(CCCCNC(=O)c3ccc(NC(=O)c4ccc(Cl)cc4)cc3)CC2)c1 | 0.831
16 | O=C(Oc1ccc(C2CNCCc3c2cc(OC(=O)c2ccc(O)cc2)c(OC(=O)c2ccc(O)cc2)c3Cl)cc1)c1ccc(O)cc1 (stereo unspecified) | 0.983
17 | Cc1cc(C2CCN(CCCCNC(=O)c3ccc(NC(=O)c4ccc(Cl)cc4)cc3)CC2)c(C)cc1OCc1ccccn1 | 0.801
18 | CCOC(=O)c1cc(Cl)ccc1OCCCON1C(=N)N=C(N)NC1(C)C | 0.0032
19 | O=C1C([N+](=O)[O-])=C(O)c2c(F)cccc21 | 0.149
20 | COCn1ncc2cc(-c3cccc(NC(=O)c4csc(NC(C)=O)n4)c3)ccc21 | 0.987
21 | Clc1ccc(OCc2ccccc2)c(Cc2ccc(-c3nc4cnccc4[nH]3)o2)c1 | 0.754
22 | Cc1ccc(CNC(=O)[C@H](Cc2ccccc2)Nc2ccnc(NCC3CCCCC3)n2)cc1 | 1.19
23 | O=C(/C=C/c1ccc(Cl)c(Cl)c1)NCCCCCN1CCC(NC(=O)Nc2ccc(C(F)(F)F)cc2)C1 (stereo unspecified) | 0.513
24 | O=[N+]([O-])c1ccc(-n2nc(-c3cccnc3)n(Cc3ccco3)c2=S)c(Cl)c1 | 0.2

Row | SMILES | XC50 [µM]
25 | CC(C)Cc1cnc2nc(N)nc(N)c2c1 | 0.491
26 | COc1cc2nc(N(C)Cc3cccc(I)c3)nc(N)c2cc1OC | 0.863
27 | COc1cccc(C2CCCN(CCCCNC(=O)c3ccc(NC(=O)c4ccc(Cl)cc4)cc3)C2)c1 (stereo unspecified) | 0.864
28 | CC(C)[C@H](NC(=O)c1c(CN2CCC(N3CCCCC3)CC2)c(-c2ccccc2)nc2cc(O)ccc12)c1ccccc1 | 0.741
29 | CC1(C)NC(N)=NC(=N)N1OCCCOc1c(Cl)cc(Cl)cc1Cl | 0.00294
30 | CCCCCCC(C)(C)c1cc(O)c2c(c1)OC(C)(C)c1ccncc1-2 | 0.178
31 | CC(C)C[C@H](NC(=O)c1ccc(OCCN2CCOCC2)cc1)C(=O)N[C@H](/C=N/N1CCNC1=O)CCc1ccccc1 | 0.365
32 | Cc1cc2[nH]c(-c3ccc(C(=O)NCCCN4CCN(c5cccc(Cl)c5)CC4)cc3F)nc2cc1Cl | 0.479
33 | Cc1cc(NC(=O)Nc2ccc3ncccc3c2)c2ccccc2n1 | 0.956
34 | CCc1ccc(C2CCN(CCCCNC(=O)c3ccc(NC(=O)c4ccc(Cl)cc4)cc3)CC2)c(OC)c1 | 0.785
35 | O=C(/C=C/c1ccc(Cl)c(Cl)c1)NCCCCCCN1CCN(C(=O)Nc2cc(F)cc(F)c2)CC1 | 1.07
36 | CN(C)CCCSc1ccccc1NC(=O)C=Cc1ccccc1 | 0.964
37 | CC[C@H]1CN2CC[C@@H]1C[C@H]2[C@H](O)c1cc(N2CCCC(C)(C)C2)nc2ccc(OC)cc12 | 0.337
38 | CC(C)(C)OC(=O)N[C@@H](CS(=O)(=O)CCNC(=N)COCc1ccccc1)C(=O)OC(C)(C)C | 0.821
39 | c1ccc2c(NCCCCCCNc3ccnc4ccccc34)ccnc2c1 | 0.191
40 | COc1ccc(Nc2nc(NCc3ccc(-n4ccnc4)cc3)cc(-c3ccc(OC)cc3)n2)cc1 | 0.827
41 | CS(=O)(=O)Nc1cccc(-c2cnc3[nH]cc(-c4ccc(C(=O)O)c(F)c4)c3c2)c1 | 0.834
42 | Cn1cc(C2CCN(CCCCNC(=O)c3sc(-c4ccc(C(F)(F)F)cc4)nc3CO)CC2)c2ccccc21 | 1.06
43 | CC1(C)C=C(c2ccncc2)c2cc(Cl)ccc2O1 | 0.43
44 | COc1cc(Nc2nccn3c(-c4ccsc4)cnc23)cc(OC)c1OC | 0.89
45 | N=C(N)c1ccc(Oc2ccc(C(=N)N)cc2)cc1 | 0.317
46 | O=c1nc2[nH]c3ccccc3n2c(=O)[nH]1 | 0.174
47 | CC(C)(C)c1ccc(CN2CCC(NC(=O)c3cc(-c4cccc(C(F)(F)F)c4)cs3)C2)cc1 (stereo unspecified) | 0.805
48 | Cc1cccc2nc(-c3ccc(-c4cccc(CN5CCN(c6ccc(C#N)cn6)CC5)c4)s3)[nH]c12 | 1.42

Row | SMILES | XC50 [µM]
49 | CC[C@H]1CN2CCc3cc(OC)c(OC)cc3[C@@H]2C[C@@H]1C[C@H]1NCCc2c1cc(OC)c(O)c2I | 0.216
50 | Nc1nc2c(ncn2OC[C@H](CO)OCP(=O)(O)O)c(=O)[nH]1 | 0.341
51 | CC(C)NCc1ccc(-c2cccc(CN3CCC(c4ccccc4)CC3)c2)c(C(=O)NCC2CCCCC2)c1 | 0.847
52 | NC1CCN(Cc2ccc(-c3cccc(-c4nc5ccccc5[nH]4)c3)cc2)C1 (stereo unspecified) | 0.849
53 | OCCN1CCN(Cc2cccc(-c3cccc(-c4nc5cc(F)ccc5[nH]4)c3)c2)CC1 | 0.706
54 | Oc1ccc2[nH]cc(C3=CCN(CCc4ccccc4)CC3)c2c1 | 0.313
55 | CCCCCCC(CC)c1cc(O)c2c(c1)OC(C)(C)c1ccncc1-2 (stereo unspecified) | 0.808
56 | CC(C)(C)c1cc2cc(Nc3ccnc4cc(-c5nccs5)ccc34)ccc2[nH]1 | 0.441
57 | CCOC(=O)C(C(C)=O)C(c1ccccc1)C(C(C)=O)C(=O)OCC (stereo unspecified) | 0.748
58 | COc1ccc2c(c1)ncn2-c1cc(OCc2ccncc2Br)c(C(N)=O)s1 | 0.609
59 | CCCCc1ccc(CCNCCCCCCNCCc2ccc(O)c(O)c2)cc1 | 1.07
60 | C/C=C1/CN2CC[C@H]1C[C@H]2[C@H](O)c1ccnc2ccc(O)cc12 | 0.491
61 | COc1cc(C(=O)N2CCOC(CCN3CCc4c(c5ccccc5n4C)C3)(c3ccc(Cl)c(Cl)c3)C2)cc(OC)c1OC (stereo unspecified) | 0.357
62 | Cc1ccc(C(=O)NC2CC2)cc1-c1ccc2c(cnn2S(=O)(=O)c2ccc(F)cc2)c1 | 0.289
63 | O=C(NC1CC1)c1ccc(Cn2c(SCc3cccc(Cl)c3)nc3ccccc3c2=O)cc1 | 0.422
64 | O=C(Nc1cccc(N2CCC(NCc3cnn(-c4cccc(F)c4)c3)CC2)c1)c1ccncc1 | 1.39
65 | CC1CN(Cc2ccc(-c3ccc(-c4nc5cc(F)ccc5[nH]4)s3)cc2)CC(C)O1 (stereo unspecified) | 0.876
66 | CN(CCN1CCCC1)c1nc2cc(-n3cnc4cc(-c5ccc(Cl)cc5)sc4c3=O)ccc2[nH]1 | 0.824
67 | Nc1nc(N)c2c(Cc3ccc(Br)cc3)cccc2n1 | 0.775
68 | O=C(NC(=O)c1ccccc1O)c1ccccc1O | 0.704
69 | COc1ccc2nccc([C@@H](O)CN3CCC(NC(=O)Cc4ccc(Br)c5ccccc45)CC3)c2c1 | 0.82
70 | COc1cccc2cc(C(=O)N[C@@H](CC(C)C)C(=O)N[C@H](C=NN3CC(=O)NC3=O)CC(C)C)oc12 | 0.92
71 | NC1=NC(c2ccccc2)(c2ccccc2)C(=O)N1C1CCCCC1 | 0.661
72 | CC(C)C1=C[C@H]2C[C@]3(C4OCCO4)[C@@H]4CC[C@@H](C)[C@H]4C[C@@]2(C(=O)OCC2COCO2)[C@]13C(=O)OC(c1ccccc1)c1ccccc1 (stereo partly specified) | 0.855

Row | SMILES | XC50 [µM]
73 | CC(C)Oc1cccc(-c2ccc(C(=O)NCC3CCCN(Cc4cccc(C(F)(F)F)c4)C3)s2)c1 (stereo unspecified) | 1.08
74 | O=C(Cc1cccnc1)N(Cc1ccc(-c2ccc(CNCc3cccnc3)cn2)cc1)C1CCN(Cc2ccccc2)CC1 | 0.803
75 | CCOC(=O)[C@H](Cc1cccc2ccccc12)NC(=O)[C@H](CCC(=O)OC(C)(C)C)NC(=O)c1ccc(N(C)Cc2cnc3nc(N)nc(N)c3n2)cc1 | 0.663
76 | c1cc(Nc2nccc(-c3cnn4ncccc34)n2)cc(-c2cnco2)c1 | 0.692
77 | Cc1ccc(C)c(Cn2ccc3nc(N)nc(N)c32)c1 | 0.301
78 | Cc1[nH]c2cc(Cl)ccc2c1C1=CCN(CCN2CCOc3c(Br)cccc3C2=O)CC1 | 0.873
79 | COc1ccc(CN2CCCN(Cc3ccc(C(=O)Nc4ccc(Cl)cc4)cc3)CC2)cc1 | 0.919
80 | Nc1nc(N)c2c(Cl)c(N(Cc3ccccc3)Cc3ccccc3)ccc2n1 | 0.192
81 | Cc1cc(C(=O)N[C@H]2CCN(Cc3ccc(OCCCN(C)C)cc3)C2)ccc1Br | 0.898
82 | O=c1cc(NCCCNCc2cc(Br)ccc2F)[nH]c2ccccc12 | 0.854
83 | Cc1[nH]c(C)c(-c2ccc(-c3ccc(Cl)cc3)nc2)c(=O)c1Cl | 0.106
84 | Cc1cccc2nc(-c3ccc(-c4ccc(NC(=O)NCc5cccc(F)c5)cc4)s3)[nH]c12 | 0.887
85 | Nc1nc(N)c2c(ccc3ccccc32)n1 | 0.749
86 | CC1CCN(CCNC(=O)c2ccc3c(=O)n(Cc4ccc(Cl)cc4)c(=S)[nH]c3c2)CC1 | 0.704
87 | Cc1[nH]cnc1-c1cccc(NC(=O)c2cc3ccccc3s2)c1 | 0.21
88 | COc1ccc(C2CC(=O)C3=C(C2)NC(C)=C(C(=O)OC2CCCC2)C3c2cccc(O)c2)cc1 (stereo unspecified) | 1.01
89 | O=C(Nc1cccnc1)c1cc(-c2cccnc2)nc2ccc(Br)cc12 | 0.64
90 | Oc1ccc(CN2CCC(NCc3cccc(C(F)(F)F)c3)CC2)cc1 | 0.685
91 | N#Cc1cccc(C(=O)N2CCOC(CCN3CCC(c4ccccc4)CC3)(c3ccc(Cl)c(Cl)c3)C2)c1 (stereo unspecified) | 1.04
92 | O=c1cc(NCCCNCc2ccc(Cl)c(Cl)c2)[nH]c2ccc(Oc3ccccc3)cc12 | 0.85
93 | Cc1nc(-c2nc(NCc3ccc4c(c3)OCO4)ncc2-c2ccsc2)sc1C | 0.103
94 | O=c1ccc2ccc(F)cc2n1CCN1CCC(NCc2ccc(-c3ccccn3)s2)CC1 | 0.887
95 | CCOC(=O)N(C)/N=C/[C@H](CCc1ccccc1)NC(=O)[C@H](CC(C)C)NC(=O)c1cc2cccc(OC)c2o1 | 0.556
96 | CCCCN1CC[C@@H](CCC(O)c2ccnc3ccc(OCCC(C)C)cc23)[C@@H](CC)C1 (stereo partly specified) | 0.989

From ChEMBL document CHEMBL1157539, “Thousands of chemical starting points for antimalarial lead identification” (Nature, 2010)
